Series [1] has as its system L6. The series is described as follows: Cytotoxicity in rat L6 cells assessed as reduction in cell viability incubated for 72 hrs by alamar blue dye based assay. Conditions: L6, 72 h.
In series [2] the test system is Plasmodium berghei. The series is described as follows: Antiplasmodial activity against GFP-transfected Plasmodium berghei ANKA infected in NMRI mouse assessed as reduction in parasitaemia at 50 mg/kg/day, ip for 4 days measured on 24 hrs after last dose by FACS analysis. It is filed as functional. Also on record: scale not given: the % may be the effect or the level left. A general note: Flow cytometry measures light scatter and fluorescence of single cells or particles in a stream.

In series [3] the test system is Plasmodium berghei. Briefly: Antiplasmodial activity against GFP-transfected Plasmodium berghei ANKA infected in NMRI mouse assessed as reduction in parasitaemia at 100 mg/kg/day, po for 4 days measured on 24 hrs after last dose by FACS analysis. Type of series: functional. The arrangement: scale not given: the % may be the effect or the level left.
In series [4] the test system is Plasmodium berghei. The series is described as follows: Antiplasmodial activity against GFP-transfected Plasmodium berghei ANKA infected in NMRI mouse assessed as mouse survival at 50 mg/kg/day, po for 4 days measured up to 30 days. It is filed as functional.
Series [5] in a line: Selectivity index, ratio of IC50 for rat L6 cells to IC50 for chloroquine sensitive Plasmodium falciparum NF54. It is filed as toxicity. As to conditions: L6 cells versus Plasmodium falciparum NF54, read-out: Ratio IC50.
In series [6] the test system is Plasmodium falciparum. Briefly: Antiplasmodial activity against chloroquine sensitive Plasmodium falciparum NF54 assessed as reduction in [3H]-hypoxanthine incorporation incubated for 48 hrs by liquid scintillation counting method. It is filed as functional, organism-based.
Series [7] relates to Plasmodium berghei. Briefly: Antiplasmodial activity against GFP-transfected Plasmodium berghei ANKA infected in NMRI mouse assessed as mouse survival at 50 mg/kg/day, ip for 4 days measured up to 30 days. Type of series: functional.
Series [8] is described as follows: Selectivity index, ratio of IC50 for rat L6 cells to IC50 for chloroquine and pyrimethamine resistant Plasmodium falciparum K1. Type of series: toxicity. Conditions: L6 cells versus Plasmodium falciparum K1, read-out: Ratio IC50.
In series [9] the test system is Plasmodium falciparum. The series is described as follows: Antiplasmodial activity against chloroquine and pyrimethamine resistant Plasmodium falciparum K1 assessed as reduction in [3H]-hypoxanthine incorporation incubated for 48 hrs by liquid scintillation counting method. Type of series: functional, organism-based.

Usually IC50 stands for the concentration at which inhibition is half-maximal. `C[C@H]1[C@H](OC(=O)CCC(=O)NCCCN(CCCCN(CCCNC(=O)CCC(=O)O[C@@H]2O[C@@H]3O[C@@]4(C)CC[C@H]5[C@H](C)CC[C@@H]([C@H]2C)[C@@]35OO4)C(=O)OC(C)(C)C)C(=O)OC(C)(C)C)O[C@@H]2O[C@@]3(C)CC[C@H]4[C@H](C)CC[C@@H]1[C@@]24OO3`: the results for the 50% inhibitory concentration (IC50) in series [1] and in [6] were 12100 nM and 0.4 nM, respectively. For the same compound, the values for the Activity in series [2] and in [3] were 99.8% and 95.7%, respectively. Besides, the Survival was 16 to 30 days in [4] and 30 days in [7]. Also, the selectivity ratio in series [5] came out at 30200.

For `CC(C)(C)OC(=O)N(CCCCN(CCCNC(=O)C1CCC2(CC1)OOC1(O2)C2CC3CC(C2)CC1C3)C(=O)OC(C)(C)C)CCCNC(=O)C1CCC2(CC1)OOC1(O2)C2CC3CC(C2)CC1C3` (stereo not drawn), the IC50 in series [1] was 65800 nM; in series [6], 5.1 nM; in series [9], 9.2 nM. For the same compound, the Activity in series [2] is 96.4%. Moreover, the selectivity ratio in [8] was determined as 7160. In series [7], the Survival came out at 9.3 days.

`C[C@H]1[C@H](OC(=O)CCC(=O)NCCCN(CCCCN(CCCNC(=O)CCC(=O)O[C@@H]2O[C@@H]3O[C@@]4(C)CC[C@H]5[C@H](C)CC[C@@H]([C@H]2C)[C@@]35OO4)C(=O)CCC(=O)O[C@@H]2O[C@@H]3O[C@@]4(C)CC[C@H]5[C@H](C)CC[C@@H]([C@H]2C)[C@@]35OO4)C(=O)CCC(=O)O[C@@H]2O[C@@H]3O[C@@]4(C)CC[C@H]5[C@H](C)CC[C@@H]([C@H]2C)[C@@]35OO4)O[C@@H]2O[C@@]3(C)CC[C@H]4[C@H](C)CC[C@@H]1[C@@]24OO3`: the IC50 in [1] is 11200 nM; in series [6], 0.3 nM. Besides, the Activity in [2] came to 95.5%. Moreover, the selectivity ratio in series [5] is 37300. For the same compound, the Survival in [7] was found to be 30 days.

The values above are taken from ChEMBL document CHEMBL4190368, “Synthesis and antimalarial evaluation of artesunate-polyamine and trioxolane-polyamine conjugates” (Eur J Med Chem, 2017).
